Measurements: patent US12459941B2, “Tricyclic IRAK inhibitors” (Rigel Pharmaceuticals, Inc., priority 2022, dated 2025)
Structures can show the parent of a compound that is named as a salt.

Experiments:
IRAK1 = IRAK1 (Homo sapiens, UniProt P51617); assay: IRAK1 ADP-Glo Kinase assay; format: biochemical; conditions: 8 pt curve
IRAK4 = biological target: T1, IRAK4 (Homo sapiens, UniProt Q9NWZ3); assay: IRAK4 ADP-Glo assay; format: biochemical; conditions: 8 pt curve; read-out: IRAK4 ADP-Glo Kinase, 8 pt
T1 construct: purchased Signalchem I12-10G-20
T1 sequence (Q9NWZ3 1-460): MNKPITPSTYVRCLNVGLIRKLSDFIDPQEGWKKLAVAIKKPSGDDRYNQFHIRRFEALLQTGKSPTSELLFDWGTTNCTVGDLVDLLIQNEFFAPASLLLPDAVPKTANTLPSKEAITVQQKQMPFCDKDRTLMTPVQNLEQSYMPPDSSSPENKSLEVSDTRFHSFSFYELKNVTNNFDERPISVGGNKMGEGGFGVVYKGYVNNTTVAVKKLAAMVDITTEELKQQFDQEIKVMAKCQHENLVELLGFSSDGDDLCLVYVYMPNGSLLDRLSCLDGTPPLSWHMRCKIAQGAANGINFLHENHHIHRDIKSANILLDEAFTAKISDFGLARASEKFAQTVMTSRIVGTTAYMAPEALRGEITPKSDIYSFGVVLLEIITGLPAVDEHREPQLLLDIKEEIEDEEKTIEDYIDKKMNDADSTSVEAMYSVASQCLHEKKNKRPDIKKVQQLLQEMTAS
Protocol: IRAK4 Kinase Enzyme (Signalchem, I12-10G-20); 0.1M DTT (Signalchem, D86-09B); MBP Substrate (Signalchem, M42-51N); ADP Glo (Promega, V9101); 1M MgCl2 (Teknova, M03304); 1M Tris-HCl pH7.4 (Teknova, T1074); BSA (Sigma (A3059); Distilled H2O
Wallac Victor2 1420 Multilabel Counter
The ADP-Glo™ reagents were thawed at ambient temperature. The Kinase Detection Reagent was prepared by mixing kinase detection buffer with the lyophilized kinase detection substrate, and set aside.
A stock volume of 5× Reaction Kinase Buffer was made with a final concentration of 100 mM MgCl2, 200 mM Tris-HCl, and 0.5 mg/ml of BSA, in distilled H2O with a final pH7.4. A 2× working stock volume of Reaction Kinase Buffer was made containing a final concentration of […].
The components of IRAK4 Enzyme were thawed on ice. Diluted IRAK4 in 1× Kinase Reaction Buffer (diluted from 2× buffer) was prepared at […]. A […] working stock ATP Assay Solution was prepared in 1× Kinase Reaction Buffer (diluted from 2× buffer).
The compound was diluted in DMSO from 250 µM in 4-fold series dilutions for 8 points. Then diluted 1:5 in 2× Reaction Buffer in a 96 well plate. 1.01 was transferred to a 384 well plate in duplicate. […] 1 μl of 1 mg/ml stock solution of MBP substrate was added NOTE: MBP can be combined with ATP mix with equal volume and then added at 2 d/well. Final reaction volume was 5 μl.
The plate was centrifuged and the reaction mixture was incubated at room temperature for 60 minutes or at 30° C. for 30 minutes.
The reaction was terminated and the remaining ATP was depleted by adding 5 μl of ADP-Glo™ Reagent. The 384-well plate was centrifuged and then the reaction mixture was incubated for another 40 minutes at ambient temperature.
10 μl of the Kinase Detection Reagent was added. The plate was centrifuged and then the reaction mixture was incubated for another 30 minutes at ambient temperature.
The 384-well reaction plate was read using the WALLAC plate reader (Luminescence 0.1s).

TNFa [1] = assay: TNFa ELISA, PBMC, Resiquimod (R848) stimulated; format: cell-based; conditions: 10 pt curve
TNFa [2] = assay: TNFa ELISA, THP1-IFNy, LTA stimulated; format: cell-based; conditions: 10 pt curve
IL23-p19 = assay: LPS induced IL23p19 in THP-1 cells (IFNγ primed), sandwich ELISA; format: cell-based; conditions: Homo sapiens; THP-1 cells primed with IFNγ, LPS 1 μg/mL, 10 pt curve; read-out: IL23-p19 ELISA, THP1-IFNy, LPS, 10 pt
Source text: LPS Induced IL23p19 in THP-1 Cells (with IFNγ Primed) Assay
THP-1 Cells (ATCC, Cat #TIB-202), Dimethyl Sulfoxide (DMSO) (Sigma-Aldrich, Cat #D2650), RPMI 1640 (Cellgro, Cat #10-040-CM), Fetal Bovine Serum (Sigma, Cat #F4135), Albumin From Bovine Serum (BSA) (Sigma-Aldrich, Cat #A7906), LPS (Serotype K-235, Sigma, Product Number L 2143), IFNγ (Peprotech, Cat #300-02), Capture antibody: Human IL-23p19 ELISA (e-Bioscience, Cat. #14-7238-85), Detection antibody: Primary Mouse Biotinylated anti-human IL-12(p40/p70) (e-Bioscience, Cat. #13-7129-85), Secondary HRP-conjugated Streptavidin (R&D Systems, Cat #DY998), 1×PBST Washing Buffer (PBS-Tween tablet) (VWR International, Cat #80058-558), ELISA Blocking Buffer (PBS with 1% BSA), ELISA Dilution Buffer (PBS with 1% BSA), 384 Well Flat-Bottom, MaxiSorp Black Immuno Plates (Thermo Scientific, Cat #12-565-346), 384 Well Flat-Bottom, White Tissue Culture Plates (Thermo Scientific, Cat #12-565-343), Super Signal ELISA Pico Chemiluminescent Substrate (Thermo Scientific, Cat #37070), Cell Titer Glo reagent (Promega, Cat #G7573), Positive control, IKK2VI inhibitor (Calbiochem, Cat #401483), AquaMax 4000 plate washer (Molecular Devices), Luminometer, Wallac Victor2 1420 Multilabel Counter.
On day 1, 50K/well THP-1 cells were seeded and primed with IFNγ (50 ng/mL) in 384-well plates for about 18 hours in RPMI media with 10% FBS. On day 2, the compound was serially diluted in DMSO from 5 mM in 3-fold dilutions, and then diluted 1:125 in RPMI media with 10% FBS. 50 μL/well 2× compound was added to 50 μL/well THP-1 cells (with IFNγ primed) in duplicate in 384 well tissue culture plates. The cells were pre-incubated with compound for 1 hour at 37° C., 5% CO2 before addition of 10 μL/well 11×LPS to give a final concentration of 1 μg/mL LPS. Day 3, after stimulation for 18 hours at 37° C., 5% CO2, the assay plate was centrifuged and 70 μL/well supernatant was harvested. IL-23p19 protein in 70 μL/well of supernatant was measured by sandwich ELISA, and 25 μl/well Cell Titer Glo reagent was added to the remaining cells to measure compound toxicity.
Human IL-23p19 Sandwich ELISA:
Maxisorp immuno ELISA plates were pre-coated with 25 μL/well of anti-IL-23p19 capture antibody (2.5 ug/mL) in PBS overnight at room temperature. After washing with 1×PBST, the plates were blocked using 100 μL/well of 1% BSA in PBS for 2 hours at room temperature. The plates were washed three times with 1×PBST and 70 μL/well supernatant were added. The plates were incubated at room temperature for 2 hours with shaking and washed three times with 1×PBST. 25 μL/well of biotin labeled anti-IL-12(p40/p70) detection antibody (100 ng/mL) in PBS with 1% BSA was added and the plates were incubated at room temperature for 2 hours with shaking. After washing three times with 1×PBST, 25 μL/well of streptavidin-HRP (1:200) in PBS with 1% BSA was added and the plates were incubated at room temperature for 20 minutes with shaking. The plates were washed three times with 1×PBST and 25 μL/well of Super Signal ELISA Pico Chemiluminescent Substrate were added. The plates were read with a luminometer, and the chemiluminescence values were entered into Athena (Rigel) for curve fitting, EC50 calculation, and database storage.

TNFa [3] = assay: TNFa ELISA, dendritic cells, Gardiquimod stimulated; format: cell-based; conditions: Homo sapiens, Dendritic cell, 10 pt curve

Chain of IRAK1 (P51617 whole entry): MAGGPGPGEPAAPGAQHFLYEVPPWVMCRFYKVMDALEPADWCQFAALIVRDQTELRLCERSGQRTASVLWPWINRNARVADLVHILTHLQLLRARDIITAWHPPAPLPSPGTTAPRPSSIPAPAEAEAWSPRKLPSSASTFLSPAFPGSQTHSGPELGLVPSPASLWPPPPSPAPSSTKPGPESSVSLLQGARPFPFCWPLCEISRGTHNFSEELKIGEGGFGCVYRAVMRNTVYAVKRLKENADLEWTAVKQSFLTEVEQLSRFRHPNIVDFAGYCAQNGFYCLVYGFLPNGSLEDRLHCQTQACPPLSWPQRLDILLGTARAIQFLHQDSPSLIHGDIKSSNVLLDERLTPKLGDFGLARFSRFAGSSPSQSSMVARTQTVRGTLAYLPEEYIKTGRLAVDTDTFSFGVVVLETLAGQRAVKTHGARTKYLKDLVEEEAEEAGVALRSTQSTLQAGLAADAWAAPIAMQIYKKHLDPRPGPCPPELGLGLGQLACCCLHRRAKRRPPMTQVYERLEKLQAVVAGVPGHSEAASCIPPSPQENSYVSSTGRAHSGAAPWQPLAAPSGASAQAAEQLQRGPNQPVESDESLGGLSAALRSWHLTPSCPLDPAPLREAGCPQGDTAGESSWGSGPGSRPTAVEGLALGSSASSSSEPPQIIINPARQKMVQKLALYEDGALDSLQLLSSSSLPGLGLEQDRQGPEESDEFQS

SMILES	IC50 (IRAK1) [nM]	IC50 (IRAK4) [nM]	EC50 (TNFa [1]; formic acid salt) [nM]	EC50 (TNFa [2]) [nM]	EC50 (IL23-p19) [nM]	EC50 (TNFa [1]) [nM]	EC50 (TNFa [3]) [nM]
Cc1c[nH]c(=O)c2cc3ccnc(OC[C@@H]4CCC(=O)N4)c3cc12 [I-2, (S)-4-methyl-6-((5-oxopyrrolidin-2-yl)methoxy)pyrido[3,4-g]isoquinolin-1(2H)-one formic acid salt]	3840	6.7	135	274			
O=C1CC[C@@H](COc2nccc3cc4c(=O)[nH]cc(C5CCCC5)c4cc23)N1 [I-13, (S)-4-cyclopentyl-6-((5-oxopyrrolidin-2-yl)methoxy)pyrido[3,4-g]isoquinolin-1(2H)-one]	6260	55.9			8470	304	
O=C1CC[C@@H](COc2nccc3cc4c(=O)[nH]cc(C5CC5)c4cc23)N1 [I-14, (S)-4-cyclopropyl-6-((5-oxopyrrolidin-2-yl)methoxy)pyrido[3,4-g]isoquinolin-1(2H)-one]	4770	4.9			956	187	196
CC(C)c1c[nH]c(=O)c2cc3ccnc(OC[C@@H]4CCC(=O)N4)c3cc12 [I-15, (S)-4-isopropyl-6-((5-oxopyrrolidin-2-yl)methoxy)pyrido[3,4-g]isoquinolin-1(2H)-one]	8370	6.2			501	68.3	
O=C1CC[C@@H](COc2nccc3cc4c(=O)[nH]cc(CC(F)F)c4cc23)N1 [I-17, (S)-4-(2,2-difluoroethyl)-6-((5-oxopyrrolidin-2-yl)methoxy)pyrido[3,4-g]isoquinolin-1(2H)-one]	10600	21.4			16100	360	607
CC(C)(O)c1c[nH]c(=O)c2cc3ccnc(OC[C@@H]4CCC(=O)N4)c3cc12 [I-20, (S)-4-(2-hydroxypropan-2-yl)-6-((5-oxopyrrolidin-2-yl)methoxy)pyrido[3,4-g]isoquinolin-1(2H)-one]		303			38700	6970	
O=C1CC[C@@H](COc2nccc3cc4c(=O)[nH]cc(C#CCO)c4cc23)N1 [I-21, (S)-4-(3-hydroxyprop-1-yn-1-yl)-6-((5-oxopyrrolidin-2-yl)methoxy)pyrido[3,4-g]isoquinolin-1(2H)-one]	777	5.8			778	422	1500
O=C1CC[C@@H](COc2nccc3cc4c(=O)[nH]cc(CCO)c4cc23)N1 [I-22, (S)-4-(2-hydroxyethyl)-6-((5-oxopyrrolidin-2-yl)methoxy)pyrido[3,4-g]isoquinolin-1(2H)-one]	9080	10.4			6980	4470	2010
CC#Cc1c[nH]c(=O)c2cc3ccnc(OC[C@@H]4CCC(=O)N4)c3cc12 [I-24, (S)-6-((5-oxopyrrolidin-2-yl)methoxy)-4-(prop-1-yn-1-yl)pyrido[3,4-g]isoquinolin-1(2H)-one]		55.7			377	283	316
Cc1c[nH]c(=O)c2cc3ccnc(OC[C@@H]4CCC(=O)N4)c3cc12 [I-25, (S)-4-methyl-6-((5-oxopyrrolidin-2-yl)methoxy)pyrido[3,4-g]isoquinolin-1(2H)-one]		69.2			79.6	392	6220
NCC#Cc1c[nH]c(=O)c2cc3ccnc(OC[C@@H]4CCC(=O)N4)c3cc12 [I-29, (S)-4-(3-aminoprop-1-yn-1-yl)-6-((5-oxopyrrolidin-2-yl)methoxy)pyrido[3,4-g]isoquinolin-1(2H)-one]	34600	1430			14000	1460	9090
O=C1CC[C@@H](COc2nccc3cc4c(=O)[nH]cc(C(F)(F)F)c4cc23)N1 [I-30, (S)-6-((5-oxopyrrolidin-2-yl)methoxy)-4-(trifluoromethyl)pyrido[3,4-g]isoquinolin-1(2H)-one]		212			2260	2020	18300
CC[C@@H]1[C@H](F)C(=O)N[C@@H]1COc1nccc2cc3c(=O)[nH]cc(C#N)c3cc12 [I-47, 6-(((2S,3S,4S)-3-ethyl-4-fluoro-5-oxopyrrolidin-2-yl)methoxy)-1-oxo-1,2-dihydropyrido[3,4-g]isoquinoline-4-carbonitrile]	531	35				78.8	78.2
